{
  "source": "patent US8697385B1",
  "about": "“Protein controlling synthesis of collagen and associated methods” (Florida State University Research Foundation, Inc., priority 2009, dated 2014)",
  "key": {"polysomes": {"tested_on": "polysomes", "assay": "Fractionation of polysomes on sucrose gradients", "type": "cell-based, human", "method": "(§1) ML-7, blebbistatin, cytochalasin B, puromycin, and cycloheximide were purchased from Sigma. ML-7 was used at 40 μM, blebbistatin was used at 100 μM, and cytochalasin B was used at 20 μM. Cells were incubated with the drugs for 16 h before analysis. Puromycin (200 μg/ml) and cycloheximide (100 μg/ml) were added to the cells for 2 h. Human lung fibroblasts have been described previously.16 Scleroderma fibroblasts were purchased from the European Collection of Cell Cultures (cell line BM0070) and derived from the skin of a scleroderma patient. MEFs were derived from knock-in mice in which the 5′SL of the collagen α1(I) gene has been mutated (Parsons et al., submitted). Several independent cell isolates were used throughout the study. All cells were cultured in Dulbecco's modified Eagle's medium supplemented with 10% fetal bovine serum for up to 10 passages. Plasmid constructs and adenovirus preparation. The HA-tagged LARP6 clone and the deletion mutants have been described previously.^16 Adenoviruses were constructed by recloning of the constructs into the pAdCMVTRACK vector, followed by recombination with the pAdEasy vector and amplification, as described previously.^48 Expression of each construct was verified by Western blot analysis. The viruses made express both the full-size test protein and the green fluorescent protein (GFP), which is encoded by an independent transcription unit.^48 Expression of GFP served as control for viral transduction. RT-PCR analysis Total cellular RNA was isolated using an RNA isolation kit (Sigma). RT-PCRs were performed with 100 ng of total RNA or using rTth reverse transcriptase (Boca Scientific, Boca Raton, Fla.). [^32P]dCTP was included in the PCR step to label the products, which were resolved on sequencing gels, as described previously.^8,31,49,50 When RNA from polysomal fractions was analyzed, an equal aliquot of each fraction was used. The number of cycles was adjusted to within the linear range of the reaction. The primers used for RT-PCR were as follows: h-collagen α1(I), 5′ primer […] (SEQ ID NO:3) and 3′ primer […] (SEQ ID NO:4); h-collagen α2(I), 5′ primer […] (SEQ ID NO:5) and 3′ primer […] (SEQ ID NO:6).\nPolysomes were fractionated as described previously.^16 Sucrose fractions (0.5 ml) were collected, and total RNA was extracted by phenol/chloroform and isopropanol precipitation. Equivalent amounts of each fraction were analyzed by RT-PCR. Total proteins were extracted from sucrose fractions by trichloroacetic acid precipitation, and equivalent amounts were analyzed by Western blot analysis.\nOne of the roles of nonmuscle myosin filaments may be to present collagen mRNAs to ribosomes. Therefore, we assessed if the association of collagen mRNAs with nonmuscle myosin is dependent on intact polysomes. […] Only the anti-myosin antibody immunoprecipitated collagen α1(I) and α2(I) mRNAs (lane 1). We then immunoprecipitated nonmuscle myosin from lung fibroblasts treated with cycloheximide or puromycin and analyzed if this can change the pull-down of collagen mRNAs. As control, the association with vimentin was analyzed in the same samples (FIG. 9b). […] The association of collagen mRNAs with vimentin increased after the dissociation of polysomes (lanes 3 and 4). […] To assess if nonmuscle myosin copurifies with polysomes, we fractionated polysomes on sucrose gradients^16 and analyzed for the presence of nonmuscle myosin in the fractions using Western blot analysis (FIG. 9f). […]"}, "human lung fibroblasts": {"tested_on": "human lung fibroblasts", "assay": "Western blot analysis of cellular and medium collagen polypeptides, lung fibroblasts", "type": "cell-based", "details": "16 h, ML-7 40 μM, blebbistatin 100 μM, vs control cells", "method": "as §1\nProtein concentration was estimated by the Bradford assay, with bovine serum albumin as standard.^51 Western blot analyses of cellular proteins were performed using 50 μg of protein. For Western blot analysis of secreted proteins, equal numbers of cells were seeded, serum-free medium was added to the cells, and incubation continued for 3 h. The medium was collected, and an aliquot was analyzed directly by Western blot analysis. Use of serum free medium in collecting secreted proteins is essential because fetal calf serum contains substantial amounts of collagen and fibronectin.^15,31 For immunostaining, cells were seeded onto glass coverslips. After treatment, the cells were fixed with 4% paraformaldehyde for 30 min at room temperature and permeabilized with 0.5% Triton X-100 in phosphatebuffered saline (PBS) for 10 min. After the cells had been blocked with 10% goat serum/5% bovine serum albumin in PBS for 1 h at room temperature, they were incubated with primary antibody overnight at 4° C., washed, and visualized with AlexaFluor594-conjugated or Cy-2-conjugated secondary antibodies. The cells were mounted using VECTASHIELD mounting medium containing […], 6-diamidino-2-phenylindole (Vector Laboratories), and images were taken by a Leica TCS SP2 AOBS laser confocal microscope equipped with a Chameleon Ti: Sapphire multiphoton laser. Optical sections were processed with LCSLite software.\nTo assess the role of nonmuscle myosin in collagen synthesis, we disrupted nonmuscle myosin filaments in two different cell types: primary human lung fibroblasts and primary scleroderma skin fibroblasts. These cells are responsible for lung and skin fibrosis. […]"}},
  "data": [
    {"smiles": "O=S(=O)(c1cccc2c(I)cccc12)N1CCCNCC1", "note": "[ML-7]", "values": [
      {"measurement": "nonmuscle myosin in polysomal fractions", "setting": "polysomes; 15-45% sucrose gradient, Western blot, puromycin or ML-7 treatment", "result": "decrease in the amount of nonmuscle myosin in the heaviest fractions"},
      {"measurement": "distribution of collagen α1(I) and α2(I) mRNAs in polysomal fractions", "setting": "polysomes; ML-7-treated vs control cells, RT-PCR of fractions", "result": "a small fraction of collagen α1(I) and α2(I) mRNAs were shifted into nonpolysomal fractions 16 and 17"},
      {"measurement": "overall distribution of polysomes", "setting": "polysomes; ML-7 treatment", "result": "did not have an effect"},
      {"measurement": "total level of collagen α1(I) and α2(I) mRNAs", "setting": "polysomes; ML-7 treatment, RT-PCR, sum of all fractions", "result": "not significantly affected"},
      {"measurement": "secretion of collagen α1(I) polypeptide into the medium", "setting": "human lung fibroblasts; cytochalasin B 20 μM", "result": "found in similar amounts"},
      {"measurement": "secretion of collagen α2(I) polypeptide into the medium", "setting": "human lung fibroblasts; cytochalasin B 20 μM", "result": "secreted only in trace amounts"},
      {"measurement": "secretion/expression of fibronectin", "setting": "human lung fibroblasts; cytochalasin B 20 μM", "result": "not affected"},
      {"measurement": "intracellular level of collagen α1(I) and α2(I) polypeptides", "setting": "human lung fibroblasts", "result": "not significantly affected"}
    ]}
  ]
}
